{
  "source": "paper PMC12765074",
  "about": "“Mechanistic insights into enterocin C targeting the undecaprenyl phosphate recycling protein BacA” (The Journal of Biological Chemistry, 2025)",
  "key": {"[1]": {"test_system": "E. faecalis EfΔbacA cells expressing BacAef R172A", "assay": "survival test", "assay_type": "cell-based, Enterococcus faecalis", "conditions": "0.5 μM EntC, 30 min, 37 °C, p ≤ 0.0001, three experiments"}, "[2]": {"test_system": "E. faecalis EfΔbacA cells expressing BacAef K209A D106A", "assay": "survival test", "assay_type": "cell-based, Enterococcus faecalis", "conditions": "0.5 μM EntC, 30 min, 37 °C, p ≤ 0.01, three experiments"}, "[3]": {"molecular_target": "BacAef (Enterococcus faecalis, UniProt A0ACD6TE02)", "assay": "ITC, BacAef", "assay_type": "binding", "conditions": "ITC, 20 °C", "quoted_text": "ITC experiments were performed with an ITC200 isothermal titration calorimeter from MicroCal (Malvern Panalytical, Malvern, UK). The experiments were carried out at 20 °C. The protein concentration in the microcalorimeter cell (0.2 ml) was 33 μM. Nineteen 2-μl injections of peptides at 400 μM were performed at intervals of 240 s while stirring at 500 rpm. To limit buffer mismatching effect between the cell and the syringe, and the heat-of-dilution effect for having glycerol in the protein solution, the latter were extensively dialyzed, prior to the ITC measurement, in a buffer containing 20 mM Tris-HCl pH 7.4, 200 mM NaCl, 0.1% DDM, to remove glycerol. Then, the dialysis buffer was used to dilute the EntC peptides to further limit buffer mismatching. The experimental data were fitted to theoretical titration curves with the software supplied by MicroCal (ORIGIN). This software uses the relationship between the heat generated by each injection and ΔH (enthalpy change in kcal/mol), Ka (the association binding constant in M^−1), n (the number of binding sites), total protein concentration and free and total ligand concentrations."}, "[4]": {"molecular_target": "BacAec (Escherichia coli, UniProt P60932)", "sequence (P60932 whole entry)": "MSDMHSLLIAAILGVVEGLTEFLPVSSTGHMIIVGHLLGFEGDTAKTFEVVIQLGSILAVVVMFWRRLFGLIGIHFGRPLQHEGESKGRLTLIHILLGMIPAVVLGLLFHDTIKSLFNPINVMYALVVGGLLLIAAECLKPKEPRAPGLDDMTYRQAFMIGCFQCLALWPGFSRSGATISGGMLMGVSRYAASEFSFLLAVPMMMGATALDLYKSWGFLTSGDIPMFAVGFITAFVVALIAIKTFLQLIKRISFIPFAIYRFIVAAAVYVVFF", "conditions": "DDM micelles", "quoted_text": "The C55-PP phosphatase assays were performed in a 10-μl reaction mixture containing 20 mM Tris-HCl, pH 7.4, 400 μM CaCl2, 150 mM NaCl, 0.1% (w/v) DDM and 50 μM radiolabeled [^14C]C55-PP (900 Bq). The BacA concentration was adjusted in order to achieve less than 30% substrate hydrolysis. The mixture was incubated for 10 min at 37 °C, and the reaction was stopped by freezing in liquid nitrogen. Substrates and products were separated by thin-layer chromatography on precoated silica gel 60 plates (Merck) using 1-propanol/ammonium hydroxide/water (6:3:1, v/v/v) as the mobile phase. Radioactive spots were located and quantified using a radioactivity scanner (model Multi-Tracermaster LB285, Berthold-France). When the phosphatase activity was tested at different pH values, the following buffers were used at 20 mM: sodium acetate (pH 4–7) or Tris-HCl (pH 7–8). In the EDTA assay, the protein was pre-treated with 200 μM EDTA. For pH and EDTA assays, CaCl2 was omitted from the reaction buffer."}, "[5]": {"test_system": "E. faecalis EfΔbacA cells expressing BacAef variants (K209A variants)", "assay": "spot-on-lawn assay, D106/D110/K209 variants", "assay_type": "cell-based, Enterococcus faecalis", "conditions": "compared to wild-type BacAef"}, "[6]": {"test_system": "E. faecalis EfΔbacA cells expressing BacAef S26A", "assay": "survival test", "assay_type": "cell-based, Enterococcus faecalis", "conditions": "0.5 μM EntC, 30 min, 37 °C, p ≤ 0.01, three experiments"}, "[7]": {"assay": "liposome permeabilisation assay (BCECF), protein-free", "assay_type": "biochemical", "conditions": "5 μM EntC, internal pH 8, external pH 6"}, "[8]": {"molecular_target": "BacAef R172A (Enterococcus faecalis, UniProt A0ACD6TE02, R184A)", "assay": "ITC, BacAef R172A", "assay_type": "binding", "conditions": "20 °C", "method": "(§1) The experiments were carried out at 20 °C."}, "[9]": {"molecular_target": "BacAef K209A (Enterococcus faecalis, UniProt A0ACD6TE02, K221A)", "assay": "ITC, BacAef K209A", "assay_type": "binding", "conditions": "20 °C", "method": "as §1"}, "[10]": {"test_system": "E. faecalis EfΔbacA cells expressing BacAef D110A", "assay": "survival test", "assay_type": "cell-based, Enterococcus faecalis", "conditions": "0.5 μM EntC, 30 min, 37 °C, three experiments"}, "[11]": {"test_system": "E. faecalis EfΔbacA cells expressing BacAef", "assay": "survival test", "assay_type": "cell-based, Enterococcus faecalis", "conditions": "0.5 μM EntC, 30 min"}, "[12]": {"test_system": "BacAef-liposomes", "conditions": "5 μM EntC, internal pH 8, external pH 6, peptide:lipid c.a. 1:1300, without EntC 1.10^-4 sec^-1"}, "[13]": {"molecular_target": "BacAef K209A D110A D106A", "assay": "ITC, BacAef K209A D110A D106A", "assay_type": "binding, Enterococcus faecalis", "conditions": "20 °C, 400 μM into [BacAef K209A D110A D106A] 33 μM, pH 7.4, 0.1% DDM, at least triplicate", "method": "as §1"}},
  "note": "Values joined by “and” are separate entries in the source; they are usually repeats but may differ in a detail not shown here. Equal values may be shown once. Marks after values point to notes of the source that are not given here.",
  "data": [
    {"substance": "Enterocin C [EntC]", "values": [
      {"measurement": "% of survival", "setting": "[1]", "result": "7.8% and 7.8 ± 0.8 ^d %"},
      {"measurement": "% of survival", "setting": "[2]", "result": "14 ± 4.0 ^c %"},
      {"measurement": "-TΔS", "setting": "[3]; into [BacAef] 33 μM", "result": 14.1, "unit": "kcal/mol"},
      {"measurement": "ΔG", "setting": "[3]; into [BacAef] 33 μM", "result": -9.0, "unit": "kcal/mol"},
      {"measurement": "ΔH", "setting": "[3]; into [BacAef] 33 μM", "result": -23.1, "unit": "kcal/mol"},
      {"measurement": "Kd", "setting": "[3]; peptides 400 μM into [BacAef] 33 μM, 20 mM Tris-HCl pH 7.4, 200 mM NaCl, 0.1% DDM, at least triplicate", "result": "196 ± 47", "unit": "nM"},
      {"measurement": "n", "setting": "[3]; peptides 400 μM into [BacAef] 33 μM, pH 7.4, 0.1% DDM, at least triplicate", "result": "0.90 ± 0.01"},
      {"measurement": "inhibition of BacAec C55-PP phosphatase activity", "setting": "[4]", "result": "not inhibited"},
      {"measurement": "susceptibility of EfΔbacA expressing K209A variants", "setting": "[5]", "result": "small reduction in susceptibility"},
      {"measurement": "% of survival", "setting": "[6]", "result": "6.8% and 6.8 ± 2.4 ^c %"},
      {"measurement": "membrane permeabilization of protein-free liposomes", "setting": "[7]", "result": "did not affect protein-free liposomes"},
      {"measurement": "n", "setting": "[8]; 400 μM into [BacAef R172A] 33 μM", "result": "0.30 ± 0.03"},
      {"measurement": "Kd", "setting": "[8]; 400 μM into [BacAef R172A] 33 μM, pH 7.4, 0.1% DDM, at least triplicate", "result": "1610 ± 650", "unit": "nM"},
      {"measurement": "-TΔS", "setting": "[8]; into [BacAef R172A]", "result": 3.6, "unit": "kcal/mol"},
      {"measurement": "ΔG", "setting": "[8]; into [BacAef R172A]", "result": -7.8, "unit": "kcal/mol"},
      {"measurement": "ΔH", "setting": "[8]; into [BacAef R172A]", "result": -11.4, "unit": "kcal/mol"},
      {"measurement": "n", "setting": "[9]; 400 μM into [BacAef K209A] 33 μM", "result": "0.46 ± 0.02"},
      {"measurement": "Kd", "setting": "[9]; 400 μM into [BacAef K209A] 33 μM, pH 7.4, 0.1% DDM, at least triplicate", "result": "1840 ± 335", "unit": "nM"},
      {"measurement": "-TΔS", "setting": "[9]; into [BacAef K209A]", "result": 0.1, "unit": "kcal/mol"},
      {"measurement": "ΔH", "setting": "[9]; into [BacAef K209A]", "result": -8.3, "unit": "kcal/mol"},
      {"measurement": "% of survival", "setting": "[10]", "result": "2.8 ± 1.0", "unit": "%"},
      {"measurement": "% of survival", "setting": "[11]; 37 °C, BHI, CFU vs same cells without EntC, three independent experiments", "result": "<1", "unit": "%"},
      {"measurement": "cells killed", "setting": "[11]; exponentially growing cells expressing wild-type BacAef", "result": "more than 99%"},
      {"measurement": "rate of decrease of BCECF fluorescence", "setting": "[12]", "result": "about 6.10^-4 sec^-1"},
      {"measurement": "KD", "setting": "[13]", "result": "No binding"}
    ]}
  ]
}
